The test deals with atopic dermatitis-induced animal model by DNCB. The experiment in a line: Thickness of the epidermis and dermis (H&E), DNCB-induced atopic dermatitis model. The following applies: 15th day, FIGS. 5 to 7; for dermal thickness: compared to the DNCB group and the normal Sham group; for skin epithelium thickness: compared to the DNCB group. It counts as in vivo, mice. The protocol: […] of a solution of 2,4-Dinitrochlorobenzene (DNCB) dissolved in acetone at a concentration of 1% or 2% was applied to the backs of mice with hair removed twice a day for 2 days, then on the 3rd day, a solution of […] containing 1% concentration of DNCB dissolved in acetone was applied twice daily, and additional applications of a solution of […] containing 1% concentration of DNCB dissolved in acetone or a solution diluted 10 times were applied twice daily on the shaved backs of mice until the 10th to 11th day starting from the day of the initial application of DNCB solution, to induce atopic dermatitis (FIG. 1).
To compare and confirm the therapeutic effects of 0.5% HY209_HA gel and 5% HY209_PEG gel on atopic dermatitis through measurement of the thickness of the epidermis and dermis in the atopic dermatitis-induced animal model of <Example 2>, each individual in the groups treated with 0.5% HY209_HA Gel, 5% HY209_PEG gel, Maxidex ointment, Eucrisa ointment, and Protopic ointment in <Experimental Example 1> had their atopic dermatitis-induced areas scarified on the 15th day from the induction of atopic dermatitis, and the Sham (untreated) group, where atopic dermatitis was not induced, and the DNCB group, which was not treated after the induction of atopic dermatitis, were also scarified on the 15th day.
After collecting skin tissues from each group of mice, the tissue samples were sliced and then fixed in 10% formalin solution for 24 hours, then rinsed with distilled water, processed into paraffin blocks, and sectioned into […] thickness slices, these slices were stained with Hematoxylin and Eosin (H&E), and observed under an optical microscope, and then the thickness of the epithelium and dermis were measured using image analysis software and analyzed using analysis software.

As for `C=CC[C@@H]1/C=C(\C)C[C@H](C)C[C@H](OC)[C@H]2O[C@@](O)(C(=O)C(=O)N3CCCC[C@H]3C(=O)O[C@H](/C(C)=C/[C@@H]3CC[C@@H](O)[C@H](OC)C3)[C@H](C)[C@@H](O)CC1=O)[C@H](C)C[C@@H]2OC` [FK506, Tacrolimus], the dermal thickness entry is “recovered close to that of the normal Sham group” and the skin epithelium thickness result is listed as “significantly reduced”.

In the case of `N#Cc1ccc(Oc2ccc3c(c2)COB3O)cc1` [Crisaborole], the dermal thickness result was “recovered close to that of the normal Sham group” and the skin epithelium thickness result was “significantly reduced”.

The values above are taken from patent US20250134909A1, “GEL COMPOSITION FOR PREVENTION OR TREATMENT OF ATOPIC DERMATITIS” (SHAPERON INC., priority 2021, published 2025).
